These are literature values, as cited in patent publication US20230059869A1, “ORAL PHARMACEUTICAL SOLUTION OF CLOPIDOGREL” (LIQMEDS WORLDWIDE LIMITED, priority 2021, published 2023).

The conditions of data set [1]: see Reist; Badorc.
The conditions of data set [2]: at high doses; see Reist; Badorc.

SMILES strings stand for the structures.

On to `COC(=O)[C@@H](c1ccccc1Cl)N1CCc2sccc2C1` [Impurity C, (R)-Methyl (2-chlorophenyl)(6,7-dihydro-4H-thieno[3,2-c]pyridin-5-yl)acetate], for which the antithrombotic activity result in data set [1] was “devoid of antithrombotic activity”. In addition, the convulsions result in data set [2] is “can evoke convulsions at high doses”.
